Consider 6 molecules from PubChem BioAssay AID1918937 (Molecular Pharmacology Branch, DTP, NCI, 2023).

This assay deals with 521955-158-R2-J5-PDC complex spheroid viability. Kind of assay: Anticancer human tumor 521955-158-R2-J5-PDC patient-derived pancreatic carcinoma cell line growth inhibition. As to conditions: for viability, T/C: stronger effect = lower value. An excerpt: Multicellular complex tumor spheroid response to LSD1 Inhibitor Iadademstat in combination with a variety of drugs and investigational agents in selected tumor cell lines
The current study was undertaken to assess response to LSD1 inhibitors in combination with standard-of-care drugs and investigational agents in solid tumor complex spheroid models as well as in the K-562 leukemia. Complex spheroids include a stromal component modeled by human endothelial cells (HUVEC) and fibroblasts modeled by human mesenchymal stem cells (MSCs). The concentration ranges selected for each drug and investigational agent were based upon clinically achievable concentrations if the clinical Cmax of the agent was known.
Compounds. The drugs and investigational agents used in this study are listed on Table 1. All of the agents used, including staurosporine (NSC755774) and gemcitabine (NSC613327), were obtained from the Developmental Therapeutics Program, NCI. FDA-approved anticancer drugs are available from the NCI at http://dtp.nci.nih.gov/branches/dscb/oncology_drugset_explanation.html. Drugs and investigational agents were >95% pure by proton nuclear magnetic resonance (NMR) and liquid chromatography/mass spectrometry (LC/MS). Stock solutions were prepared at 400x in DMSO, stored at -70 degrees C, and diluted in fresh medium prior to their use. The final concentration of DMSO in cell culture wells never exceeded 0.25% (v/v). The FDA-approved anticancer drug set is available from the Developmental Therapeutics Program at https://dtp.cancer.gov/organization/dscb/obtaining/available_plates.htm. All drugs and investigational agents were tested over a range starting from a high concentration at or near the clinical Cmax and decreasing in half-log increments. If the clinical Cmax for an agent had not been determined, the highest concentration tested was 10 microM.
Cell Lines. The patient-derived cancer cell (PDC) lines: 292921-168-R-J2-PDC, K24384-001-R-PDC, and 521955-158-R2-J5-PDC pancreatic carcinomas, 556581-035-R-J1 ovarian carcinoma, 324938-238-R-J1-PDC, 855422-203-R-J1-PDC and 883617-216-R-J1-PDC urothelial bladder carcinomas, 743489-274-T-PDC renal cell carcinoma, 138582-R-J1 Merkel cell tumor, K60290-347-R-J1 and K57222-313-R-J1-PDC glioblastomas, 653999-131-R-J2-PDC, LG0703-F948-PDC, and 349418-098-R-PDC non-small cell lung carcinomas, 885512-296-R-J2-PDC, 171881-019-R-J1-PDC breast carcinomas and 186277-243-T-J2-PDC and 233499-124-R-J2-PDC colon carcinomas were obtained from the NCI Patient-Derived Models Repository (PDMR, https://pdmr.cancer.gov). The established cell lines NCI/ADR-RES (RRID:CVCL_14520 and OVCAR-5 (RRID:CVCL_1628) ovarian carcinomas, 786-O (RRID:CVCL_1051) and A498 (RRID:CVCL_A498) renal cell carcinoma, NCI-H211 (ATCC, cat. CRL-5824; RRID:CVCL_1529), NCI-H196 (ATCC, cat. CRL-5823, RRID:CVCL_1509), SW 1271 (ATCC, cat. CRL-2177, RRID:CVCL_1716) and NCI-H1876 (ATCC, cat. CRL-5902, RRID:CVCL_1503) small cell lung carcinomas, MDA-MB-231 (RRID:CVCL_0062) and MDA-MB-468 (RRID:CVCL_0419)breast carcinomas (10-12). Pooled donor human umbilical vein endothelial cells (HUVEC, Lonza, cat. CC-2519) and human mesenchymal stem cells (hMSC, Lonza, cat. PT-2501) were purchased from Lonza (Walkersville, MD).
Cell Culture. All cells were maintained in an incubator at 37 degrees C and 5% CO2 with 95% humidity. The PDC lines were cultured according to standard operating procedures established by the NCI PDMR (https://pdmr.cancer.gov). Briefly all PDCs were thawed and cultured in Matrigel-coated flasks prepared with a working solution of 1X Ham's F-12 nutrient mix, without supplementation (Invitrogen, Waltham, MA, cat. 11765054), 100 U/mL penicillin-streptomycin (Invitrogen, cat. 15140122), and 2.5% Matrigel (Corning Inc., Corning, NY, cat. 354248) for the first three passages. […]

By viability, T/C is commonly meant the ratio of treated to control. A word on the IC50: it is the concentration at which inhibition is half-maximal.

“And” between values parts separate entries of the source, which are not always exact repeats. Equal entries are not always repeated.
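Note: spheroids exposed to agents for seven days.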
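Throughout, for viability, T/C: percent of DMSO vehicle control luminescence viability.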

For `CC(C)c1c(-c2ccccc2)nc2c(C#N)c[nH]n2c1=O`, the viability, T/C runs as follows: (compound 0.0316 µM) 104% and 98.1%; (compound 0.1 µM) 108% and 97.9%; (compound 0.316 µM) 105% and 104%; (compound 1 µM) 101% and 86.4%; (compound 3.16 µM) 102% and 94.2%; (compound 10 µM) 86.5% and 85.9%. Besides, the IC50 (curve of compound) is above 10000 nM.

With `CC1COCCN1c1cc(C2(S(C)(=N)=O)CC2)nc(-c2ccnc3[nH]ccc23)n1` (stereo not given), the viability, T/C (compound 0.0316 µM) was 108% and 112%; the viability, T/C (compound 0.1 µM) was 102% and 100%; the viability, T/C (compound 0.316 µM) is 94.3% and 111%; the viability, T/C (compound 1 µM) was 13.1% and 18.6%; the viability, T/C (compound 3.16 µM) is 9.05% and 12.5%; the viability, T/C (compound 10 µM) was 13.5% and 17.8%. Further, the IC50 (curve of compound) was 593 nM and 655 nM.

`COc1ccc([C@@H](O)c2cc(-c3ncnc4cc(N5CCOCC5)ccc34)c(F)cc2Cl)nn1`: the viability, T/C by setting is: (compound 0.0316 µM) 99.8% and 97.6%; (compound 0.1 µM) 87% and 104%; (compound 0.316 µM) 73.6% and 84.4%; (compound 1 µM) 57.1% and 63.2%; (compound 3.16 µM) 38.6% and 57.8%; (compound 10 µM) 22.4% and 24.5%. In addition, the IC50 (curve of compound) is 1550 nM and 3390 nM.

Take `NC1CC1c1ccc(-c2cccc(O)c2)cc1` (stereo not given): for the setting “compound 0.1 µM”, the viability, T/C was 78.3%. Where the note is “compound alone, run of 02/21/2022”, the IC50 is above 10000 nM.

Turning to `NC1CCC(NC2CC2c2ccccc2)CC1` (stereo not given), where the note is “compound 0.316 µM”, the viability, T/C was 92.2% [middle of 4 runs]. The half-inhibitory concentration (IC50) (compound alone, run of 02/15/2022) is above 10000 nM.

Regarding `Nc1ncn(C2CC(O)C(CO)O2)c(=O)n1` (stereo not given) + NC1CC1c1ccc(-c2cccc(O)c2)cc1, the IC50 (curve of first compound, second compound 0.1 µM) was above 1000 nM; the IC50 (curve of first compound, second compound 0.316 µM) is above 1000 nM; the 50% inhibitory concentration (IC50) (curve of first compound, second compound 1 µM) was above 1000 nM; the IC50 (curve of first compound, second compound 3.16 µM) is above 1000 nM; the IC50 (curve of first compound, second compound 10 µM) was above 1000 nM. Besides, the viability, T/C runs as follows: (second compound 0.1 µM, first compound 0.00316 µM) 89.9%; (second compound 0.1 µM, first compound 0.01 µM) 81.6%; (second compound 0.1 µM, first compound 0.0316 µM) 83.7%; (second compound 0.1 µM, first compound 0.1 µM) 76.3%; (second compound 0.1 µM, first compound 0.316 µM) 58.7%; (second compound 0.1 µM, first compound 1 µM) 52.4%. Also, the viability, T/C by setting is: (second compound 0.316 µM, first compound 0.00316 µM) 78.3%; (second compound 0.316 µM, first compound 0.01 µM) 89.6%; (second compound 0.316 µM, first compound 0.0316 µM) 101%; (second compound 0.316 µM, first compound 0.1 µM) 73.4%; (second compound 0.316 µM, first compound 0.316 µM) 65.5%; (second compound 0.316 µM, first compound 1 µM) 53.1%. The viability, T/C is 84.1% (second compound 1 µM, first compound 0.00316 µM); 91.2% (second compound 1 µM, first compound 0.01 µM); 86.6% (second compound 1 µM, first compound 0.0316 µM); 76.9% (second compound 1 µM, first compound 0.1 µM); 68.8% (second compound 1 µM, first compound 0.316 µM); 59.8% (second compound 1 µM, first compound 1 µM). In addition, the viability, T/C (second compound 3.16 µM, first compound 0.00316 µM) was 80.9%; the viability, T/C (second compound 3.16 µM, first compound 0.01 µM) is 83.9%; the viability, T/C (second compound 3.16 µM, first compound 0.0316 µM) was 82.2%; the viability, T/C (second compound 3.16 µM, first compound 0.1 µM) is 79%; the viability, T/C (second compound 3.16 µM, first compound 0.316 µM) is 76%; the viability, T/C (second compound 3.16 µM, first compound 1 µM) is 65.1%. Also, the viability, T/C was 87.7% (second compound 10 µM, first compound 0.00316 µM); 94% (second compound 10 µM, first compound 0.01 µM); 95.9% (second compound 10 µM, first compound 0.0316 µM); 80.7% (second compound 10 µM, first compound 0.1 µM); 75.5% (second compound 10 µM, first compound 0.316 µM); 67.4% (second compound 10 µM, first compound 1 µM).
